Measurements taken from patent US5635359A, “Method for measuring the activity of angiotensin converting enzyme in biological samples” (priority 1991, dated 1997).

Columns and labels:
[1] = system: angiotensin I; assay: Plasma angiotensin I concentration after oral enalapril; type: in vivo, human; settings: healthy humans, single oral dose 20 mg enalapril, mean ± SEM
Protocol: (§1) Ten normal volunteers aged 20 to 28 years (body weight 63 to 85 kg) participated in the study. On the study day, they came to the hospital at 7 a.m. and were installed in a supine position. At 8 a.m., the subjects ingested 20 mg enalapril, an inhibitor of angiotensin converting enzyme. Venous blood samples were collected before (time 0) and at 0.5, 1, 2, 4, 8 and 24 hours after enalapril intake. The subjects remained in supine position for one hour prior to blood sampling and no food intake was permitted within three hours prior to sampling.
(§2) For the measurement of Ang II (Nussberger J., Brunner D. B., Waeber B., Brunner H. R., Hypertension 1985; 7 (Suppl. I): 11-17) and immunoreactive Ang I (Nussberger J., Brunner D. B., Waeber B., Brunner H. R., Life Sci. 1988; 42:1683-1688), another 10 ml blood were collected on an inhibitor cocktail containing EDTA and renin inhibitor to prevent degradation and generation of these peptides in vitro. Samples were centrifuged at 4° C. and plasma aliquots of 2.2 ml snap frozen and stored as described above.

[2] = system: angiotensin II; assay: Plasma angiotensin II concentration after oral enalapril; type: in vivo, human; settings: healthy humans, single oral dose 20 mg enalapril, mean ± SEM
Protocol: as §1, §2

[3] = system: angiotensin converting enzyme (ACE); assay: Plasma ACE-activity, trapping-assay (Ang I substrate, monoclonal antibody TRAP, RIA) after oral enalapril; type: in vivo, human; settings: for ACE-activity measured in vitro with the trapping-assay as percent of baseline / ACE-Activity trapping-assay: mean ± SEM; for ACE-Activity trapping-assay: healthy humans, single oral dose 20 mg enalapril
Protocol: as §1
(§3) For the measurement of ACE-activity, blood samples (5 ml) were collected from the antecubital vein into prechilled glass tubes containing heparin (56 USP) and 25 μl renin inhibitor CGP 29287 (Ciba-Geigy, Basel, Switzerland) at 1 mM in water. Blood was centrifuged at 4° C. and 2000 g for 10 minutes and plasma aliquots of 0.5 ml were snap frozen in liquid nitrogen and stored at -70° C. until analyzed.
All procedures were done in an ice-water bath unless stated otherwise: Plasma was thawed and centrifuged at 4° C. and 40 μl supernatant was pipetted into a small polypropylene tube. Ten microliter monoclonal antibody TRAP (which was secreted from the Hybridoma cell line TRAP DSM ACC2003) was added (mouse ascites diluted 1:8400 in 3M tris buffer at pH 7.3). One picomole angiotensin I was added in 10 microliter albumin buffer containing--for blank determination only--EDTA at 0.2M concentration. After mixing and cold centrifugation in order to concentrate the mixture at the bottom of the tube (1 minute at 2000 g) samples were incubated in a water bath at 37° C. for 20 minutes. Incubation was stopped by returning the samples to the ice-water bath. Forty microliters of albumin buffer without/with 0.2M EDTA was added to blanks/samples in order to equalize conditions. Each tube (total 100 microliters) finally received 1 ml albumin buffer containing 1 fmol ^125 I-Ang II (2000 counts per minute) and EDTA at 0.02M concentration. After a 24 hour incubation at 4° C., antibody-bound and free Ang II were separated by adding 0.3 ml water containing 2% dextran-coated charcoal, mixing for 10 minutes, centrifugation at 4° C. (for 20 minutes at 6000 g) and decanting of the supernatant. Supernatant and pellet were counted in a ten-well scintillation counter (GammamasterR, Wallac, Turku, Finland) and generated Ang II was read from a simultaneously established standard curve.
For the standard curve, increasing amounts of unlabeled Ang II ranging from 16 to 4000 fmol in 40 μl pool plasma which contained unmeasurably low endogenous Ang I and Ang II and renin inhibitor CGP 29287 at 0.01 mM concentration; antibody in 3M tris buffer (10 μl) and 1000 fmol Ang I in EDTA-albumin buffer (10 μl) were added in order to obtain identical conditions as for the unknown samples.

[4] = system: angiotensin converting enzyme (ACE); assay: Ratio of plasma Ang II/Ang I as in vivo ACE-activity after oral enalapril; design: species or system human; settings: for In vivo ACE-activity (ratio of plasma Ang II to Ang I) as percent of baseline / Ratio Ang II/Ang I: mean ± SEM; for Ratio Ang II/Ang I: plasma, healthy humans, single oral dose 20 mg enalapril
Protocol: as §1, §2
(§4) Plasma ACE-activity was also measured by an established method using as substrate synthetic carbobenzoxy-Phe-His-Leu at 1.8 mM concentration (Piquilloud Y., Reinharz A., Roth M.. Biochem. Biophys. Acta 1970; 206: 136-142). The ratio of the plasma concentrations Ang II/Ang I was used for estimation of ACE-activity "in vivo" (Nussberger J., Juillerat L., Perret F., Waeber B., Bellet M., Brunner H. R., Menard J., Am Heart J. 1989; 117: 717-722).

[5] = system: angiotensin converting enzyme (ACE); assay: Plasma ACE-activity, conventional assay (substrate carbobenzoxy-Phe-His-Leu) after oral enalapril; type: in vivo, human; settings: for Plasma ACE-activity by the conventional method, % of pretreatment values / ACE-Activity Conventional assay: mean ± SEM; for ACE-Activity Conventional assay: healthy humans, single oral dose 20 mg enalapril
Protocol: as §1, §3, §4

[6] = 4 hours post enalapril intake (20 mg oral)
[7] = 8 hours post enalapril intake (20 mg oral)
[8] = 24 hours post enalapril intake (20 mg oral)

`CCOC(=O)[C@H](CCc1ccccc1)N[C@@H](C)C(=O)N1CCC[C@H]1C(=O)O` [enalapril] was tested. Which “Angiotensin I” value ([1]; 0.5 h after intake) did it give?
Its value is 7.3 ± 1.5 fmol/mL.

What about the “Angiotensin I” value ([1]; 1 h after intake) of the same molecule?
The value was 13.5 ± 3.0 fmol/mL.

What about the “Angiotensin I” value ([1]; 2 h after intake) of the same molecule?
The value was 45.7 ± 12.9 fmol/mL.

And the “Angiotensin I” value ([1]; 4 h after intake)?
The value was 66.8 ± 17.6 fmol/mL.

What about the “Angiotensin I” value ([1]; 8 h after intake) of the same molecule?
The value was 76.6 ± 15.9 fmol/mL.

What about the “Angiotensin I” value ([1]; 24 h after intake) of the same molecule?
The value was 32.1 ± 6.4 fmol/mL.

And the “Angiotensin II” value ([2]; 0.5 h after intake)?
Its value is 4.6 ± 0.5 fmol/mL.

What about the “Angiotensin II” value ([2]; 1 h after intake) of the same molecule?
The value was 2.9 ± 0.5 fmol/mL.

And the “Angiotensin II” value ([2]; 2 h after intake)?
The value was 1.1 ± 0.3 fmol/mL.

What about the “Angiotensin II” value ([2]; 4 h after intake) of the same molecule?
Its value is 1.0 ± 0.2 fmol/mL.

What about the “Angiotensin II” value ([2]; 8 h after intake) of the same molecule?
The value was 1.6 ± 0.4 fmol/mL.

And the “Angiotensin II” value ([2]; 24 h after intake)?
The value was 3.8 ± 0.5 fmol/mL.

What about the “ACE-activity measured in vitro with the trapping-assay as percent of baseline” value (shortened to “ACE-activity measured … as percent of baseline”) [3, 6] of the same molecule?
Its value is 3.6±2.4%.

And the “ACE-activity measured … as percent of baseline” value [3, 7]?
The value was 1.3±1.3%.

And the “ACE-activity measured … as percent of baseline” value [3, 8]?
Its value is 27.4±3.4%.

And the “Plasma ACE-activity measured in vitro, trapping method, returned to” value ([3]; at 24 hours)?
The value was 27%.

What about the “Decrease of plasma ACE-activity measured in vitro, trapping method” value ([3]; at peak inhibition) of the same molecule?
The value was 99%.

What about the ACE-Activity trapping-assay ([3]; 0.5 h after intake) of the same molecule?
Its ACE-Activity trapping-assay is 295 ± 27 fmol/mL/min.

What about the ACE-Activity trapping-assay ([3]; 1 h after intake) of the same molecule?
The ACE-Activity trapping-assay was 107 ± 17 fmol/mL/min.

What about the ACE-Activity trapping-assay ([3]; 2 h after intake) of the same molecule?
Its ACE-Activity trapping-assay is 28 ± 8 fmol/mL/min.

And the ACE-Activity trapping-assay ([3]; 4 h after intake)?
Its ACE-Activity trapping-assay is 15 ± 10 fmol/mL/min.

And the ACE-Activity trapping-assay ([3]; 8 h after intake)?
The ACE-Activity trapping-assay was 5 ± 5 fmol/mL/min.

What about the ACE-Activity trapping-assay ([3]; 24 h after intake) of the same molecule?
The ACE-Activity trapping-assay was 87 ± 10 fmol/mL/min.

And the “In vivo ACE-activity (ratio of plasma Ang II to Ang I) as percent of baseline” value [4, 6]?
Its value is 2.1±0.3%.

What about the “In vivo ACE-activity (ratio of plasma Ang II to Ang I) as percent of baseline” value [4, 7] of the same molecule?
Its value is 2.0±0.4%.

And the “In vivo ACE-activity (ratio of plasma Ang II to Ang I) as percent of baseline” value [4, 8]?
The value was 21.9±5.0%.

And the “In vivo ACE-activity (ratio of plasma Ang II to Ang I) returned to” value ([4]; at 24 hours)?
The value was 22%.

What about the “Decrease of in vivo ACE-activity (ratio of plasma Ang II to Ang I)” value ([4]; at peak inhibition) of the same molecule?
Its value is 98%.

And the “Ratio Ang II/Ang I” value ([4]; 0.5 h after intake)?
The value was “.748 ± .101”.

And the “Ratio Ang II/Ang I” value ([4]; 1 h after intake)?
Its value is “.315 ± .094”.

And the “Ratio Ang II/Ang I” value ([4]; 2 h after intake)?
The value was “.029 ± .006”.

What about the “Ratio Ang II/Ang I” value ([4]; 4 h after intake) of the same molecule?
The value was “.015 ± .003”.

What about the “Ratio Ang II/Ang I” value ([4]; 8 h after intake) of the same molecule?
The value was “.016 ± .003”.

What about the “Ratio Ang II/Ang I” value ([4]; 24 h after intake) of the same molecule?
Its value is “.147 ± .027”.

And the “Plasma ACE-activity by the conventional method, % of pretreatment values” (from here on “Plasma ACE-activity … % of pretreatment values”) ([5]; 4 hours after enalapril administration (20 mg oral))?
Its value is 16.5±1.7%.

What about the “Plasma ACE-activity … % of pretreatment values” ([5]; 8 hours after enalapril administration (20 mg oral)) of the same molecule?
Its value is 20.8±1.7%.

And the “Plasma ACE-activity … % of pretreatment values” ([5]; 24 hours after enalapril administration (20 mg oral))?
The value was 62.6±1.6%.

And the “ACE-activity, conventional method, return towards baseline” value ([5]; at 24 hours)?
Its value is 66%.

What about the “Peak ACE-inhibition, decrease from baseline, conventional method” value ([5]; at peak inhibition) of the same molecule?
The value was 83%.

And the “ACE-Activity Conventional assay” value ([5]; 0.5 h after intake)?
The value was 18.1 ± 1.7 nmol/mL/min.

What about the “ACE-Activity Conventional assay” value ([5]; 1 h after intake) of the same molecule?
The value was 12.1 ± 1.2 nmol/mL/min.

What about the “ACE-Activity Conventional assay” value ([5]; 2 h after intake) of the same molecule?
The value was 4.5 ± 0.8 nmol/mL/min.

And the “ACE-Activity Conventional assay” value ([5]; 4 h after intake)?
Its value is 3.0 ± 0.4 nmol/mL/min.

And the “ACE-Activity Conventional assay” value ([5]; 8 h after intake)?
The value was 3.7 ± 0.4 nmol/mL/min.

And the “ACE-Activity Conventional assay” value ([5]; 24 h after intake)?
The value was 11.2 ± 1.0 nmol/mL/min.
